Experimental data from US20180290961A1, “METHOD AND SYSTEM FOR OBTAINING A CARBOXYLIC ACID WHICH IS PRODUCED IN A FERMENTATION PROCESS” (THYSSENKRUPP INDUSTRIAL SOLUTIONS AG, priority 2015, published 2018).

test: precipitation of fermentatively prepared carboxylic acid after acidification; type: physicochemical; conditions: not given
Text: The invention is based on the observation that sparingly soluble carboxylic acids such as fumaric acid and adipic acid cannot be worked up satisfactorily using the known purification methods. […] In order to compensate for the resulting loss of product, alternative purification methods are necessary.

SMILES | concentration above which the acid precipitates after acidification
O=C(O)/C=C/C(=O)O [fumaric acid] | about 5 g/l

test: physchem; conditions: 20 °C, water

SMILES | solubility
O=C(O)/C=C/C(=O)O [fumaric acid] | ≤ 15 mg/mL
N[C@@H](Cc1c[nH]cn1)C(=O)O [histidine] | ≤ 50 mg/mL
CC[C@H](C)[C@H](N)C(=O)O [isoleucine] | ≤ 50 mg/mL
CC(C)C[C@H](N)C(=O)O [leucine] | ≤ 50 mg/mL
CSCC[C@H](N)C(=O)O [methionine] | ≤ 50 mg/mL
N[C@@H](Cc1ccccc1)C(=O)O [phenylalanine] | ≤ 50 mg/mL
O=C(O)c1ccccc1O [salicylic acid] | ≤ 15 mg/mL
